Measured values published in PubChem BioAssay AID1963448 (Molecular Pharmacology Branch, DTP, NCI, 2024).
Several values for one entry are separate records, joined by “and”; a condition that tells them apart may be missing. Equal entries are not always repeated.

Tested on: 616215-338-R-J1-PDC complex spheroid growth, % test/control
Assay: Anticancer human tumor 616215-338-R-J1-PDC patient-derived colon adenocarcinoma cell line growth inhibition [Asc]
Settings: for viability, T/C: stronger effect = lower value; active = viability on the fitted dose curve at most 10% of control; inactive = the rest
In short: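 Complex solid-tumor spheroids incorporating human endothelial and mesenchymal stem cells received single agents or combinations over half-log dilution ranges anchored to clinical Cmax.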

[1] = curve of first compound, second compound 0.00316 µM
[2] = curve of first compound, second compound 0.01 µM
[3] = curve of first compound, second compound 0.0316 µM
[4] = curve of first compound, second compound 0.1 µM
[5] = curve of first compound, second compound 0.316 µM
[6] = curve of first compound, second compound 1 µM
[7] = second compound 0.00316 µM, first compound 0.0316 µM
[8] = second compound 0.00316 µM, first compound 0.1 µM
[9] = second compound 0.01 µM, first compound 0.0316 µM
[10] = second compound 0.01 µM, first compound 0.1 µM
[11] = second compound 0.0316 µM, first compound 0.0316 µM
[12] = second compound 0.0316 µM, first compound 0.1 µM
[13] = second compound 0.1 µM, first compound 0.0316 µM
[14] = second compound 0.1 µM, first compound 0.1 µM
[15] = second compound 0.316 µM, first compound 0.0316 µM
[16] = second compound 0.316 µM, first compound 0.1 µM
[17] = second compound 1 µM, first compound 0.0316 µM
[18] = second compound 1 µM, first compound 0.1 µM
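Also: spheroids exposed to agents for seven days before readout.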
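For viability, T/C in this document: 100% = DMSO vehicle control viability.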

Cn1ncnc1[C@H]1c2n[nH]c(=O)c3cc(F)cc(c23)N[C@@H]1c1ccc(F)cc1 + CNC(C)C(=O)NC1CN(S(=O)(=O)c2cccc(S(=O)(=O)N3CCC4CCC(C(=O)NC(c5ccccc5)c5ccccc5)N4C(=O)C(NC(=O)C(C)NC)C3)c2)CCC2CCC(C(=O)NC(c3ccccc3)c3ccccc3)N2C1=O
inactive: viability, T/C (second compound 0.00316 µM, first compound 0.000316 µM) 10.7% | viability, T/C (second compound 0.01 µM, first compound 0.000316 µM) 95% | viability, T/C (second compound 0.01 µM, first compound 0.001 µM) 101% | viability, T/C (second compound 0.01 µM, first compound 0.00316 µM) 97.2% | viability, T/C (second compound 0.01 µM, first compound 0.01 µM) 92.4% | viability, T/C [9] 95.1% | viability, T/C [10] 98.5% | viability, T/C (second compound 0.0316 µM, first compound 0.000316 µM) 91.5% | viability, T/C (second compound 0.0316 µM, first compound 0.001 µM) 95.5% | viability, T/C (second compound 0.0316 µM, first compound 0.00316 µM) 101% | viability, T/C (second compound 0.0316 µM, first compound 0.01 µM) 102% | viability, T/C [11] 100% | viability, T/C [12] 110% | viability, T/C (second compound 0.1 µM, first compound 0.000316 µM) 106% | viability, T/C (second compound 0.1 µM, first compound 0.001 µM) 108% | viability, T/C (second compound 0.1 µM, first compound 0.00316 µM) 103% | viability, T/C (second compound 0.1 µM, first compound 0.01 µM) 108% | viability, T/C [13] 102% | viability, T/C [14] 103% | viability, T/C (second compound 0.316 µM, first compound 0.000316 µM) 97.6% | viability, T/C (second compound 0.316 µM, first compound 0.001 µM) 104% | viability, T/C (second compound 0.316 µM, first compound 0.00316 µM) 102% | viability, T/C (second compound 0.316 µM, first compound 0.01 µM) 104% | viability, T/C [15] 102% | viability, T/C [16] 98.4% | viability, T/C (second compound 1 µM, first compound 0.000316 µM) 107% | viability, T/C (second compound 1 µM, first compound 0.001 µM) 99.2% | viability, T/C (second compound 1 µM, first compound 0.00316 µM) 97.2% | viability, T/C (second compound 1 µM, first compound 0.01 µM) 99.2% | viability, T/C [17] 96% | viability, T/C [18] 101%
> 100 nM: IC50 [2] | IC50 [3] | IC50 [4] | IC50 [5] | IC50 [6]
active: viability, T/C (second compound 0.00316 µM, first compound 0.001 µM) 10.5% | viability, T/C (second compound 0.00316 µM, first compound 0.00316 µM) 7.58% | viability, T/C (second compound 0.00316 µM, first compound 0.01 µM) 9.25% | viability, T/C [7] 9.45% | viability, T/C [8] 8.48%
< 0.316 nM: IC50 [1]

Cc1nc(N2CCC3(CC2)COC(C)C3N)c(CO)nc1Sc1ccnc(N)c1Cl (stereo unspecified)
inactive: viability, T/C (compound 0.00949 µM) 102% and 94% and 101% | viability, T/C (compound 0.03 µM) 90.5% and 98.1% and 102% | viability, T/C (compound 0.0949 µM) 104% and 105% and 103% | viability, T/C (compound 0.3 µM) 81.2% and 99.7% and 101% | viability, T/C (compound 0.949 µM) 48% and 102% (2×) | viability, T/C (compound 3 µM) 11.8% and 95.5% and 91.3%
871 nM and > 3000 nM: IC50 (curve of compound)

C#Cc1c(F)ccc2cc(O)cc(-c3ncc4c(N5CC6CCC(C5)N6)nc(OCC56CCCN5CC(F)C6)nc4c3F)c12 (stereo unspecified) + CNC(C)C(=O)NC1CN(S(=O)(=O)c2cccc(S(=O)(=O)N3CCC4CCC(C(=O)NC(c5ccccc5)c5ccccc5)N4C(=O)C(NC(=O)C(C)NC)C3)c2)CCC2CCC(C(=O)NC(c3ccccc3)c3ccccc3)N2C1=O
2330 nM: IC50 [4]
3760 nM: IC50 [3]
2280 nM: IC50 [1]
2100 nM: IC50 [6]
inactive: viability, T/C [7] 94.8% | viability, T/C [8] 104% | viability, T/C (second compound 0.00316 µM, first compound 0.316 µM) 95.6% | viability, T/C (second compound 0.00316 µM, first compound 1 µM) 100% | viability, T/C (second compound 0.00316 µM, first compound 3.16 µM) 30.6% | viability, T/C [9] 101% | viability, T/C [10] 99.3% | viability, T/C (second compound 0.01 µM, first compound 0.316 µM) 104% | viability, T/C (second compound 0.01 µM, first compound 1 µM) 97.6% | viability, T/C (second compound 0.01 µM, first compound 3.16 µM) 37.4% | viability, T/C [11] 100% | viability, T/C [12] 95.7% | viability, T/C (second compound 0.0316 µM, first compound 0.316 µM) 99.9% | viability, T/C (second compound 0.0316 µM, first compound 1 µM) 104% | viability, T/C (second compound 0.0316 µM, first compound 3.16 µM) 57.1% | viability, T/C [13] 90.9% | viability, T/C [14] 102% | viability, T/C (second compound 0.1 µM, first compound 0.316 µM) 105% | viability, T/C (second compound 0.1 µM, first compound 1 µM) 89.4% | viability, T/C (second compound 0.1 µM, first compound 3.16 µM) 35.7% | viability, T/C [15] 98.7% | viability, T/C [16] 102% | viability, T/C (second compound 0.316 µM, first compound 0.316 µM) 109% | viability, T/C (second compound 0.316 µM, first compound 1 µM) 89.9% | viability, T/C (second compound 0.316 µM, first compound 3.16 µM) 44.2% | viability, T/C [17] 106% | viability, T/C [18] 86% | viability, T/C (second compound 1 µM, first compound 0.316 µM) 102% | viability, T/C (second compound 1 µM, first compound 1 µM) 104% | viability, T/C (second compound 1 µM, first compound 3.16 µM) 22.4%
active: viability, T/C (second compound 0.00316 µM, first compound 10 µM) 6.11% | viability, T/C (second compound 0.01 µM, first compound 10 µM) 5.11% | viability, T/C (second compound 0.0316 µM, first compound 10 µM) 9.6% | viability, T/C (second compound 0.1 µM, first compound 10 µM) 4.68% | viability, T/C (second compound 0.316 µM, first compound 10 µM) 6.83% | viability, T/C (second compound 1 µM, first compound 10 µM) 3.39%
2720 nM: IC50 [5]
2490 nM: IC50 [2]

NC(=O)C(=Cn1cnc(-c2cc(C(F)(F)F)cc(C(F)(F)F)c2)n1)c1cncnc1 + CCN1C(C(=O)NC23CCC(C(=O)O)(CC2)CC3)C(c2cccc(Cl)c2F)C2(C(=O)Nc3cc(Cl)ccc32)C12CCCCC2
inactive: viability, T/C (second compound 0.03 µM, first compound 0.000949 µM) 89.7% | viability, T/C (second compound 0.03 µM, first compound 0.003 µM) 93.4% | viability, T/C (second compound 0.03 µM, first compound 0.00949 µM) 88.1% | viability, T/C (second compound 0.03 µM, first compound 0.03 µM) 83.7% | viability, T/C (second compound 0.03 µM, first compound 0.0949 µM) 73.8% | viability, T/C (second compound 0.03 µM, first compound 0.3 µM) 56.2% | viability, T/C (second compound 0.0949 µM, first compound 0.000949 µM) 84.4% | viability, T/C (second compound 0.0949 µM, first compound 0.003 µM) 85.4% | viability, T/C (second compound 0.0949 µM, first compound 0.00949 µM) 75.5% | viability, T/C (second compound 0.0949 µM, first compound 0.03 µM) 61.3% | viability, T/C (second compound 0.0949 µM, first compound 0.0949 µM) 48.8% | viability, T/C (second compound 0.0949 µM, first compound 0.3 µM) 28.9% | viability, T/C (second compound 0.3 µM, first compound 0.000949 µM) 60% | viability, T/C (second compound 0.3 µM, first compound 0.003 µM) 57.2% | viability, T/C (second compound 0.3 µM, first compound 0.00949 µM) 48.2% | viability, T/C (second compound 0.3 µM, first compound 0.03 µM) 32.6% | viability, T/C (second compound 0.3 µM, first compound 0.0949 µM) 24.9% | viability, T/C (second compound 0.949 µM, first compound 0.000949 µM) 49.2% | viability, T/C (second compound 0.949 µM, first compound 0.003 µM) 48.9% | viability, T/C (second compound 0.949 µM, first compound 0.00949 µM) 35.5% | viability, T/C (second compound 0.949 µM, first compound 0.03 µM) 11.2% | viability, T/C (second compound 3 µM, first compound 0.000949 µM) 39.3% | viability, T/C (second compound 3 µM, first compound 0.003 µM) 32.4% | viability, T/C (second compound 3 µM, first compound 0.00949 µM) 17.5%
< 0.949 nM: IC50 (curve of first compound, second compound 0.949 µM) | IC50 (curve of first compound, second compound 3 µM)
6.42 nM: IC50 (curve of first compound, second compound 0.3 µM)
77.4 nM: IC50 (curve of first compound, second compound 0.0949 µM)
> 300 nM: IC50 (curve of first compound, second compound 0.03 µM)
active: viability, T/C (second compound 0.3 µM, first compound 0.3 µM) 6.51% | viability, T/C (second compound 0.949 µM, first compound 0.0949 µM) 3.85% | viability, T/C (second compound 0.949 µM, first compound 0.3 µM) 0.63% | viability, T/C (second compound 3 µM, first compound 0.03 µM) 3.73% | viability, T/C (second compound 3 µM, first compound 0.0949 µM) 1.87% | viability, T/C (second compound 3 µM, first compound 0.3 µM) 0.41%
